Measurements reported in ChEMBL document CHEMBL5113401, “Novel 1,3,4-oxadiazole chalcogen analogues: Synthesis and cytotoxic activity” (Eur J Med Chem, 2022).
Activity calls are given as the source filed them. The rule behind the calls is not given here.

Tests used:
HeLa [1] = assay: Induction of cell cycle arrest in human HeLa cells assessed as accumulation of cells at G2/M phase at 1 uM incubated for 18 hrs by FACS flow cytometry analysis (reference value: 12.66 +/- 0.92 %); type: functional
HeLa [2] = assay: Induction of apoptosis in human HeLa cells assessed as viable cells at 1 uM incubated for 24 hrs by Annexin V-FITC/7-AAD staining based flow cytometric analysis (reference value: 85.6 +/- 1.061%); type: functional; conditions: read-out: Activity
Tubulin (Homo sapiens) [3] = biological target: T1, Tubulin (Homo sapiens) (UniProt P68371+Q9H4B7+P0DPH7+P68366+Q13509+Q71U36+P04350+Q3ZCM7+P07437+P68363+Q9BQE3+Q6PEY2+Q13885+Q9BVA1+Q9BUF5); assay: Inhibition of tubulin polymerization in human HeLa cells assessed as abnormal microtubule network at 0.5 uM incubated for 6 hrs by DAPI staining based fluorescence microscopic analysis; type: cell-based
PC-3 [4] = assay: Inhibition of colony formation in human PC-3 cells at IC50 incubated for 2 weeks with culture medium replacement for every 3 days by crystal violet staining based analysis; type: functional, cell-based
Tubulin (Homo sapiens) [5] = biological target: T1, Tubulin (Homo sapiens); assay: Inhibition of tubulin polymerization in human HeLa cells assessed as aberrations in mitotic spindle and nucleus at 0.5 uM incubated for 6 hrs by DAPI staining based fluorescence microscopic analysis; type: cell-based
HeLa [6] = assay: Induction of apoptosis in human HeLa cells assessed as dead cells at 1 uM incubated for 24 hrs by Annexin V-FITC/7-AAD staining based flow cytometric analysis (reference value: 0.6 +/- 0.707 %); type: functional
PC-3 [7] = assay: Induction of cell cycle arrest in human PC-3 cells assessed as accumulation of cells at S phase at 1 uM incubated for 12 hrs by FACS flow cytometry analysis (reference value: 35.06 +/- 1.36 %); type: functional
PC-3 [8] = assay: Induction of cell cycle arrest in human PC-3 cells assessed as accumulation of cells at G2/M phase at 1 uM incubated for 6 hrs by FACS flow cytometry analysis (reference value: 20.74 +/- 1.93 %); type: functional
HeLa [9] = assay: Induction of cell cycle arrest in human HeLa cells assessed as accumulation of cells at S phase at 1 uM incubated for 6 hrs by FACS flow cytometry analysis (reference value: 17.41 +/- 0.96 %); type: functional
PC-3 [10] = assay: Induction of cell cycle arrest in human PC-3 cells assessed as accumulation of cells at G2/M phase at 1 uM incubated for 18 hrs by FACS flow cytometry analysis (reference value: 20.74 %); type: functional
HeLa [11] = assay: Inhibition of colony formation in human HeLa cells at IC50 incubated for 2 weeks with culture medium replacement for every 3 days by crystal violet staining based analysis; type: functional, cell-based
HFF-1 = assay: Cytotoxicity against HFF-1 cells assessed as reduction in cell viability at 1 to 2 uM incubated for 48 hrs by XTT assay; type: toxicity, cell-based; conditions: human, hff-1, 48 h, dose 1-2 µM
HeLa [12] = assay: Induction of cell cycle arrest in human HeLa cells assessed as accumulation of cells at G2/M phase at 1 uM incubated for 12 hrs by FACS flow cytometry analysis (reference value: 12.66 %); type: functional
MCF7 = assay: Antiproliferative activity against human MCF7 cells assessed as inhibition of cell growth incubated for 48 hrs by XTT assay; type: functional, cell-based; conditions: MCF7, 48 h
HeLa [13] = assay: Antiproliferative activity against human HeLa cells assessed as inhibition of cell growth incubated for 48 hrs by XTT assay; type: functional, cell-based
PC-3 [14] = assay: Induction of cell cycle arrest in human PC-3 cells assessed as accumulation of cells at S phase at 1 uM incubated for 18 hrs by FACS flow cytometry analysis (reference value: 35.06 %); type: functional
HeLa [15] = assay: Induction of cell cycle arrest in human HeLa cells assessed as accumulation of cells at G1 phase at 1 uM incubated for 12 hrs by FACS flow cytometry analysis (reference value: 69.94 %); type: functional
HeLa [16] = assay: Induction of apoptosis in human HeLa cells assessed as early apoptotic cells at 1 uM incubated for 24 hrs by Annexin V-FITC/7-AAD staining based flow cytometric analysis (reference value: 2.7 +/- 0.424 %); type: functional
NB1 = assay: Cytotoxicity against human NB1 cells immortalized with hTERT plasmid assessed as reduction in cell viability at 1 to 2 uM incubated for 48 hrs by XTT assay; type: toxicity, cell-based; conditions: nb1, 48 h, dose 1-2 µM
PC-3 [17] = assay: Induction of cell cycle arrest in human PC-3 cells assessed as accumulation of cells at G1 phase at 1 uM incubated for 12 hrs by FACS flow cytometry analysis (reference value: 44.2 +/- 2.01 %); type: functional
PC-3 [18] = assay: Antiproliferative activity against human PC-3 cells assessed as inhibition of cell growth incubated for 48 hrs by XTT assay; type: functional, cell-based; conditions: PC-3, 48 h
PC-3 [19] = assay: Induction of cell cycle arrest in human PC-3 cells assessed as accumulation of cells at G2/M phase at 1 uM incubated for 12 hrs by FACS flow cytometry analysis (reference value: 20.74 +/- 1.95 %); type: functional
HeLa [20] = assay: Induction of cell cycle arrest in human HeLa cells assessed as accumulation of cells at G1 phase at 1 uM incubated for 18 hrs by FACS flow cytometry analysis (reference value: 69.94 +/- 1.25 %); type: functional
Tubulin (Homo sapiens) [21] = biological target: T1, Tubulin (Homo sapiens); assay: Inhibition of tubulin polymerization in human HeLa cells assessed as irregular cell morphology at 0.5 uM incubated for 6 hrs by DAPI staining based fluorescence microscopic analysis
PC-3 [22] = assay: Induction of cell cycle arrest in human PC-3 cells assessed as accumulation of cells at G1 phase at 1 uM incubated for 18 hrs by FACS flow cytometry analysis (reference value: 44.2 %); type: functional
HeLa [23] = assay: Induction of cell cycle arrest in human HeLa cells assessed as accumulation of cells at S phase at 1 uM incubated for 18 hrs by FACS flow cytometry analysis (reference value: 17.41 +/- 1.16 %); type: functional
PC-3 [24] = assay: Induction of cell cycle arrest in human PC-3 cells assessed as accumulation of cells at S phase at 1 uM incubated for 6 hrs by FACS flow cytometry analysis (reference value: 35.06 +/- 1.85 %); type: functional
HeLa [25] = assay: Induction of cell cycle arrest in human HeLa cells assessed as accumulation of cells at G1 phase at 1 uM incubated for 6 hrs by FACS flow cytometry analysis (reference value: 69.94 +/- 1.71 %); type: functional
HeLa [26] = assay: Induction of cell cycle arrest in human HeLa cells assessed as accumulation of cells at S phase at 1 uM incubated for 12 hrs by FACS flow cytometry analysis (reference value: 17.41 %); type: functional
HeLa [27] = assay: Induction of apoptosis in human HeLa cells assessed as late apoptotic cells at 1 uM incubated for 24 hrs by Annexin V-FITC/7-AAD staining based flow cytometric analysis (reference value: 11.1 +/- 0.778 %); type: functional
HeLa [28] = assay: Induction of cell cycle arrest in human HeLa cells assessed as accumulation of cells at G2/M phase at 1 uM incubated for 6 hrs by FACS flow cytometry analysis (reference value: 12.66 +/- 0.88 %); type: functional
PC-3 [29] = assay: Induction of cell cycle arrest in human PC-3 cells assessed as accumulation of cells at G1 phase at 1 uM incubated for 6 hrs by FACS flow cytometry analysis (reference value: 44.2 +/- 2.21 %); type: functional

Structure (SMILES)	Activity (HeLa [1]) [%]	viability at 1 µM (HeLa [2]) [%]	inhibition (Tubulin (Homo sapiens) [3])	inhibition (PC-3 [4])	inhibition (Tubulin (Homo sapiens) [5])	Activity (HeLa [6]) [%]	Activity (PC-3 [7]) [%]	Activity (PC-3 [8]) [%]	Activity (HeLa [9]) [%]	inhibition (HeLa [11])	Activity (HFF-1)	IC50 (MCF7) [nM]	IC50 (HeLa [13]) [nM]	Activity (HeLa [16]) [%]	Activity (NB1)	Activity (PC-3 [17]) [%]	IC50 (PC-3 [18]) [nM]	Activity (PC-3 [19]) [%]	Activity (HeLa [20]) [%]	inhibition (Tubulin (Homo sapiens) [21])	further results
Cc1[nH]c2c(c1-c1nnc(-c3ccccc3)o1)Cc1ccccc1-2	90.18	62.2	Active	Active	Active	6.4	18.48	38.61	63.32	Active	Non-Toxic	1720	68	2.9	Non-Toxic	0	1660	81.52	1.48	Active	Activity (PC-3 [10]): 92.97%; Activity (HeLa [12]): 41.41%; Activity (PC-3 [14]): 5.86%; Activity (HeLa [15]): 3.54%; Activity (PC-3 [22]): 1.71%; Activity (HeLa [23]): 8.43%; Activity (PC-3 [24]): 53.05%; Activity (HeLa [25]): 16.81%; Activity (HeLa [26]): 55.05%; Activity (HeLa [27]): 28.5%; Activity (HeLa [28]): 20.86%; Activity (PC-3 [29]): 8.34%
Cc1[nH]c2c(c1-c1nnc(-c3cccc(Cl)c3)[se]1)Cc1ccccc1-2	89.4	80.1	Active	Active	Active	1.8	8.65	34.87	48.5	Active	Non-Toxic	216	83	2.7	Non-Toxic	1.87	548	89.48	1.15	Active	Activity (HeLa [23]): 9.44%; Activity (PC-3 [24]): 54.7%; Activity (HeLa [25]): 27.87%; Activity (HeLa [27]): 15.4%; Activity (HeLa [28]): 23.63%; Activity (PC-3 [29]): 10.43%
Cc1[nH]c2c(c1-c1nnc(-c3ccccc3Cl)[se]1)Cc1ccccc1-2	85.47	24.6	Active	Active	Active	5.3	5.7	31.52	35.29	Active	Non-Toxic	91	5	11.9	Non-Toxic	0.64	67	93.66	2.03	Active	Activity (HeLa [23]): 12.5%; Activity (PC-3 [24]): 55.33%; Activity (HeLa [25]): 41.62%; Activity (HeLa [27]): 58.2%; Activity (HeLa [28]): 23.09%; Activity (PC-3 [29]): 13.15%
